Laboratory results reported in ChEMBL document CHEMBL4265951, “Multi-target-directed ligands for Alzheimer's disease: Discovery of chromone-based monoamine oxidase/cholinesterase inhibitors” (Eur J Med Chem, 2018).
Activity calls are given as the source filed them. The calls are words filed in the database; no cut-off is given here.

What was measured:
[1] = target: T1, Amine oxidase [flavin-containing] A (Homo sapiens, UniProt P21397); assay: Inhibition of human recombinant microsomal MAOA expressed in baculovirus infected BTI-TN-5B1- 4 cells using p-tyramine as substrate assessed as decrease in H2O2 production at 100 uM by amplex red-based fluorescence assay
T1 sequence (P21397 whole entry): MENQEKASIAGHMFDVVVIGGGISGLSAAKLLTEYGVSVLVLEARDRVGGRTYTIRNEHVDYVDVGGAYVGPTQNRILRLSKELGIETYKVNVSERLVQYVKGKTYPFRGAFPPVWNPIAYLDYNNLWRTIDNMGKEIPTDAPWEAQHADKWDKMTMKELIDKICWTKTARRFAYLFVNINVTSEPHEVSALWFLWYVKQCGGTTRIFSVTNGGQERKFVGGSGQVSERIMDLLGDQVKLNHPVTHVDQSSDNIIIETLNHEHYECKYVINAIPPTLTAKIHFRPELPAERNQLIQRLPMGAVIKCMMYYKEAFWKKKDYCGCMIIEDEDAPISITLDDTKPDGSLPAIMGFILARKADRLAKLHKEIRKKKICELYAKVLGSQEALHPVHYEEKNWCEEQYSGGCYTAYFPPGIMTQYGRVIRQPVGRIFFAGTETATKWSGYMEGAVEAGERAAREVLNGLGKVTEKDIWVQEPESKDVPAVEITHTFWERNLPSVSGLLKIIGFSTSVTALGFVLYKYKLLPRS

Cholinesterase [2] = target: T2, Cholinesterase (Homo sapiens, UniProt P06276); assay: Inhibition of human serum BuChE at 10 uM using butyrylthiocholine as substrate pretreated for 5 mins followed by substrate addition measured after 5 mins by Ellman's method
T2 sequence (P06276 whole entry): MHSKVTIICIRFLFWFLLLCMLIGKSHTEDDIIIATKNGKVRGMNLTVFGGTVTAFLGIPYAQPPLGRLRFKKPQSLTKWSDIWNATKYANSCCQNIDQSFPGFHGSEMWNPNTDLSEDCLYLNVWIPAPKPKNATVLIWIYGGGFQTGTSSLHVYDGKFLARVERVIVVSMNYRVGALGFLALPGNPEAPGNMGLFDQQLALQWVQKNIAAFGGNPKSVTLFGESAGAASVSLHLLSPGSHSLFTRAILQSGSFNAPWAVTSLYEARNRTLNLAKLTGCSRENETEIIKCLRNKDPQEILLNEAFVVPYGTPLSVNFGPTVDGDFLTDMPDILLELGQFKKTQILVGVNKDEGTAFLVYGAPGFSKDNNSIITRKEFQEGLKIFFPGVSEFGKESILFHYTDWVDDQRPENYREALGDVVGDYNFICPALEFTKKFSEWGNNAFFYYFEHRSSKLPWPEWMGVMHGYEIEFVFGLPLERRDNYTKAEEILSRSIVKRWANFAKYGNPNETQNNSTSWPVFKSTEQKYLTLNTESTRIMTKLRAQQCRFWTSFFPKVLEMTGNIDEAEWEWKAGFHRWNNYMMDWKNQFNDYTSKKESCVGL

[3] = target: T1, Amine oxidase [flavin-containing] A; assay: Competitive inhibition of human recombinant microsomal MAOA expressed in baculovirus infected BTI-TN-5B1- 4 cells using p-tyramine as substrate assessed as decrease in H2O2 production at 1000 to 2000 nM by Lineweaver-Burk plot analysis
[4] = target: T3, Amine oxidase [flavin-containing] B (Homo sapiens, UniProt P27338); assay: Competitive inhibition of human recombinant microsomal MAOB expressed in baculovirus infected BTI-TN-5B1- 4 cells using p-tyramine as substrate assessed as decrease in H2O2 production at 500 to 1000 nM by Lineweaver-Burk plot analysis
T3 sequence (P27338 whole entry): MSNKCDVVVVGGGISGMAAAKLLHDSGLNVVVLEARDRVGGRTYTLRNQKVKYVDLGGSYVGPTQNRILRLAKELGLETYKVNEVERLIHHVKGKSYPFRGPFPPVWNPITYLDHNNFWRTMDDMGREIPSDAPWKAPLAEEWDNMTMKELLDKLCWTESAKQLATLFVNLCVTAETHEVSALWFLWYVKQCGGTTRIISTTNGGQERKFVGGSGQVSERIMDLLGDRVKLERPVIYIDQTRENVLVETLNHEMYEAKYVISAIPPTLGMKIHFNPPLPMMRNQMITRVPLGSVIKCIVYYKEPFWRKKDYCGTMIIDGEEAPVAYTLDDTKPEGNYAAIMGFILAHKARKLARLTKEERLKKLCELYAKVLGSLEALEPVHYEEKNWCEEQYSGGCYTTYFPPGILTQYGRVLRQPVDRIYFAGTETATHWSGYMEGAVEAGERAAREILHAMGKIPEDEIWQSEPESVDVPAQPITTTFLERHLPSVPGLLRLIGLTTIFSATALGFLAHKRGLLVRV

[5] = target: T3, Amine oxidase [flavin-containing] B; assay: biochemical; format: cell-based
Description: Inhibition of human recombinant MAOB expressed in baculovirus infected BTI-TN-5B1- 4 cells using p-tyramine as substrate assessed as decrease in H2O2 production by amplex red-based fluorescence assay

[6] = target: T3, Amine oxidase [flavin-containing] B; assay: Reversible competitive inhibition of human recombinant microsomal MAOB expressed in baculovirus infected BTI-TN-5B1- 4 cells using p-tyramine as substrate assessed as decrease in H2O2 production by Dixon plot analysis
Acetylcholinesterase [7] = target: T4, Acetylcholinesterase (Homo sapiens, UniProt P22303); assay: Mixed type inhibition of human AChE using acetylthiocholine iodide as substrate pretreated for 5 mins followed by substrate addition measured after 5 mins by Dixon plot analysis
T4 sequence (P22303 whole entry): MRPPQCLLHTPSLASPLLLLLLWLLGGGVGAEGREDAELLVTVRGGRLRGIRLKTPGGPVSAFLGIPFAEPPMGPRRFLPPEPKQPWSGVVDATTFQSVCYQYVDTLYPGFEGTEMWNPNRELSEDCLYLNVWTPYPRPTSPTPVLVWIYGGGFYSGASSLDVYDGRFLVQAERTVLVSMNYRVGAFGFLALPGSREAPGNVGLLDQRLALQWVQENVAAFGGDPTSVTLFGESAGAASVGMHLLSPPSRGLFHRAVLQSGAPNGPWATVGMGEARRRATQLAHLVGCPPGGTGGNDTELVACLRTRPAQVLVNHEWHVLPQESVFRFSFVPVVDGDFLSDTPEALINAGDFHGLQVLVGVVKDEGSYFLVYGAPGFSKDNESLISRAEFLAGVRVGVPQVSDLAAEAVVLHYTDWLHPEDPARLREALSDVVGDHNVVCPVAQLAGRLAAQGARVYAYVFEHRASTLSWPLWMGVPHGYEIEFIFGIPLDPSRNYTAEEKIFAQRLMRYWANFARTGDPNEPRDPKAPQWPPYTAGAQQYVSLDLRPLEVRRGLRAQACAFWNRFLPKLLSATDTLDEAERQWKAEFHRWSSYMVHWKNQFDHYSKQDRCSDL

in vitro [8] = details: PAMPA
Description: Effective permeability of the compound at 1 mg/ml after 4 hrs by BBB-PAMPA method

[9] = target: T1, Amine oxidase [flavin-containing] A; assay: biochemical
Description: Inhibition of human recombinant microsomal MAOA expressed in baculovirus infected BTI-TN-5B1- 4 cells using p-tyramine as substrate assessed as decrease in H2O2 production by amplex red-based fluorescence assay

[10] = target: T1, Amine oxidase [flavin-containing] A; assay: Reversible inhibition of human recombinant microsomal MAOA expressed in baculovirus infected BTI-TN-5B1- 4 cells using p-tyramine as substrate assessed as decrease in H2O2 production at IC80 after 60 mins; details: 1 h
Beta-secretase 1 = Beta-secretase 1 (Homo sapiens, UniProt P56817); assay: Inhibition of human BACE1 using rhodamine-EVNLDAEFK-quencher as substrate after 60 mins by FRET assay
Beta-secretase 1, sequence (P56817 whole entry): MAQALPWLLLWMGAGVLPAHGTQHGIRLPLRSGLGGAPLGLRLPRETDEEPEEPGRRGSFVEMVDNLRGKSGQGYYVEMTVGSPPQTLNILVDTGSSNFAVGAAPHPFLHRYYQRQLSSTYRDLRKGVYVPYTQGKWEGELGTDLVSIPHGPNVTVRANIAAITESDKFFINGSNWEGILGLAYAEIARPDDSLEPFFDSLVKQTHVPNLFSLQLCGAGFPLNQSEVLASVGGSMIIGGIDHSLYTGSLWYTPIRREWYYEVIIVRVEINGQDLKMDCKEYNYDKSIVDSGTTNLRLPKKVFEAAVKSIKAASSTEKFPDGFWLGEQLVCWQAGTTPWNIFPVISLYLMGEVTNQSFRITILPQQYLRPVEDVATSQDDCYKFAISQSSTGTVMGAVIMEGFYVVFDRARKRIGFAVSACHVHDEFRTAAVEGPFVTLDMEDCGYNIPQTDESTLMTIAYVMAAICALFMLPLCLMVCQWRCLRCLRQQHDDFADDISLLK

SH-SY5Y [11] = assay: Cytotoxicity against human SH-SY5Y cells assessed as reduction in cell viability at 25 to 50 uM after 48 hrs by resazurin reduction assay; format: cell-based
Acetylcholinesterase [12] = target: T4, Acetylcholinesterase; assay: Mixed type inhibition of human AChE at 0.05 to 0.20 uM using acetylthiocholine iodide as substrate pretreated for 5 mins followed by substrate addition measured after 5 mins by Lineweaver burk plot analysis
Acetylcholinesterase [13] = target: T4, Acetylcholinesterase; assay: Inhibition of human AChE using acetylthiocholine iodide as substrate pretreated for 5 mins followed by substrate addition measured after 5 mins by Ellman's method
[14] = Cytotoxicity against human SH-SY5Y cells assessed as cell mass at 50 uM after 48 hrs by SRB assay relative to control; format: cell-based; details: read-out: Activity
[15] = target: T1, Amine oxidase [flavin-containing] A; assay: Reversible competitive inhibition of human recombinant microsomal MAOA expressed in baculovirus infected BTI-TN-5B1- 4 cells using p-tyramine as substrate assessed as decrease in H2O2 production by Dixon plot analysis
SH-SY5Y [16] = assay: Cytotoxicity against human SH-SY5Y cells assessed as reduction in cell viability at 0.1 to 50 uM after 48 hrs by resazurin reduction assay; format: cell-based
HepG2 [17] = assay: Cytotoxicity against human HepG2 cells assessed as reduction in cell viability at 0.1 to 50 uM after 48 hrs by SRB assay; format: cell-based; details: hepg2, 48 h
Cholinesterase [18] = target: T2, Cholinesterase; assay: Inhibition of human serum BuChE using butyrylthiocholine as substrate pretreated for 5 mins followed by substrate addition measured after 5 mins by Ellman's method
[19] = target: T1, Amine oxidase [flavin-containing] A; assay: Inhibition of human recombinant microsomal MAOA expressed in baculovirus infected BTI-TN-5B1- 4 cells using p-tyramine as substrate assessed as decrease in H2O2 production at 10 uM by amplex red-based fluorescence assay
SH-SY5Y [20] = assay: Cytotoxicity against human SH-SY5Y cells assessed as reduction in cell viability at 0.1 to 50 uM after 48 hrs by SRB assay; format: cell-based
HepG2 [21] = assay: Cytotoxicity against human HepG2 cells assessed as reduction in cell viability at 0.1 to 50 uM after 48 hrs by resazurin reduction assay; format: cell-based; details: hepg2, 48 h
in vitro [22] = details: PAMPA; remark: listed apart in the source
Description: Effective permeability of the compound at 25 ug/ml after 18 hrs by BBB-PAMPA method

Structure (SMILES) | inhibition (Cholinesterase [2]) | inhibition (INH) [4] | IC50 [5] | Ki [6] | Papp at 4 h, 1 mg/ml (in vitro [8]) | IC50 (Beta-secretase 1) | IC50 (Acetylcholinesterase [13]) | Activity (SH-SY5Y [16]) | Activity (HepG2 [17]) | inhibition (INH) [19] | Activity (SH-SY5Y [20]) | Activity (HepG2 [21]) | other results
C[C@H](NCc1ccc(OCc2cccc(F)c2)cc1)C(N)=O [SAFINAMIDE] |  |  |  |  |  |  |  |  |  |  |  |  | inhibition (INH) [1]: Not Active
Cc1ccc(NC(=O)c2cc(=O)c3cc(/C=C/C(=O)OCCN(C)C)ccc3o2)cc1 | inactive | Active | 3810 nM | 478 nM | 5.2 ×10⁻⁶ cm/s | > 10000 nM | 210 nM |  |  |  |  |  | inhibition (INH) [3]: Active; Ki (Acetylcholinesterase [7]): 190 nM; IC50 [9]: 940 nM; inhibition (INH) [10]: Active; Activity (SH-SY5Y [11]): Toxic; inhibition (Acetylcholinesterase [12]): Active; viability at 48 h, 50 µM [14]: 44%; Ki [15]: 57 nM
CN(C)CCOC(=O)/C=C/c1ccc2occ(C(=O)Nc3ccccc3)c(=O)c2c1 |  | Active | 630 nM | 337 nM | 6.4 ×10⁻⁶ cm/s | > 10000 nM | 3690 nM | Non-Toxic | Non-Toxic | Not Active | Non-Toxic | Non-Toxic | IC50 (Cholinesterase [18]): 4320 nM
O=C(O)/C=C/c1ccc2occ(C(=O)Nc3ccccc3)c(=O)c2c1 | inactive |  | 4660 nM |  | 1.2 ×10⁻⁶ cm/s | > 10000 nM | 9250 nM | Non-Toxic | Non-Toxic | Not Active | Non-Toxic | Non-Toxic | 
C[C@]12CCC(=O)C=C1CC[C@@H]1[C@@H]2[C@@H](O)C[C@]2(C=O)[C@@H](C(=O)CO)CC[C@@H]12 [ALDOSTERONE] |  |  |  |  | 1 ×10⁻⁶ cm/s |  |  |  |  |  |  |  | Papp at 18 h, 25 ug/ml (in vitro [22]): 1.2 ×10⁻⁶ cm/s
